{
  "source": "patent US20180055370A1",
  "about": "“PHOTOACOUSTIC APPARATUS” (CANON KABUSHIKI KAISHA, priority 2015, published 2018)",
  "experiment": "Change over time of contrast agent concentration in circulating blood (blood sampling after administration)",
  "format": "in vivo, nude mice",
  "conditions": "threshold value of linearity R^2≧0.8",
  "description": "FIG. 2 is a graph illustrating contrast agent concentration change information obtained from a plurality of blood samplings of nude mice to which a contrast agent has been administered. The vertical axis represents the concentration of coloring material in blood, and the horizontal axis denotes the time elapsed since administration. The graph depicts specifically the change of the concentration after administration of contrast agent in an amount of 20 nanomoles of coloring material equivalent, to the caudal vein of the nude mice. […]\nIn a case where the contrast agent is administered into the circulating blood as one shot, the contrast agent concentration in the circulating blood decreases exponentially due to clearance with the passage of time, as illustrated in FIG. 2. […] When no signal is acquired within an appropriate lapse of time, therefore, the contrast agent in the circulating blood may in some instances fail to be quantified successfully. […] On the other hand, once a prolonged period of time has elapsed since administration, the contrast agent concentration in the circulating blood decreases, and becomes readily influenced by the sensitivity and/or measurement variability of the measuring instrument. […]",
  "data": [
    {"molecule": "CC1(C)C(/C=C/C=C/C=C/C=C2\\N(CCCCS(=O)(=O)O)c3ccc4ccccc4c3C2(C)C)=[N+](CCCCS(=O)(=O)[O-])c2ccc3ccccc3c21", "note": "[ICG, indocyanine green]", "values": [
      {"measurement": "TIME [hr] (measurement time range over which concentration in blood decreases linearly on a semi-logarithmic axis)", "value": "0.08~0.5 hr"}
    ]}
  ]
}
